Assay results reported in PubChem BioAssay (NCI).
Several values for one entry are separate records, joined by “and”; a condition that tells them apart may be missing. Equal entries are not always repeated.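 Compound exposure: 48 hours, 5 concentrations, 96-well plates. Abbreviation: GI50, concentration required for 50% inhibition of growth. TGI: concentration producing complete growth inhibition.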

Experiments:
Assay in all cases: DTP human tumour cell line panel, 48 h
[1] = system: CAKI-1 renal
[2] = system: HL-60(TB) leukemia
[3] = system: NCI-H226 lung
[4] = system: NCI-H460 lung
[5] = system: NCI/ADR-RES ovarian
[6] = system: PC-3 prostate
[7] = system: RPMI-8226 leukemia
[8] = system: SK-MEL-5 melanoma
[9] = system: SK-OV-3 ovarian
[10] = system: SNB-19 CNS
[11] = system: T-47D breast
[12] = system: TK-10 renal
[13] = system: UACC-62 melanoma
[14] = system: A498 renal

Row | SMILES | TGI [1] [µM] | TGI [2] [µM] | TGI [3] [µM] | TGI [4] [µM] | TGI [5] [µM] | TGI [6] | TGI [7] [µM] | TGI [8] [µM] | TGI [9] [µM] | TGI [10] [µM] | TGI [11] [µM] | TGI [12] [µM] | TGI [13] [µM] | TGI [14] [µM] | GI50 [13] [µM]
1 | COC(=O)/C=C\c1ccc2c(c1)CC1(C2)Cc2ccc(/C=C/C(=O)OC)cc2C1 (centres undefined) | > 100 | > 31.6 | > 31.6 | > 100 | > 31.6 | > 31.6 µM | > 31.6 | > 31.6 | > 31.6 | > 100 | > 31.6 | > 31.6 | > 31.6 |  | 
2 | C=CCNC1=C2C[C@@H](C)C[C@@H](OC)[C@H](OC(=O)CN(C)C)[C@H](C)/C=C(\C)[C@@H](OC(N)=O)[C@H](OC)/C=C\C=C(/C)C(=O)NC(=CC1=O)C2=O | 31.9 | 13.7 |  | 15.6 | > 92.1 | 16.6 µM | > 48.2 | 14.6 | 20 | 20.8 | > 42.2 | 16.3 | 11.6 | 19.4 | 
3 | CCCCCCCC1c2cc3[nH]c(cc4nc(cc5[nH]c(cc(n2)[C@@]1(C)CC(=O)N(C)C)c(C)c5CCC(=O)O)C(CCC(=O)O)=C4C)cc3C (some centres undefined) | > 100 | 45.8 |  | 43.8 | 43.1 | 64 µM | 47.7 | 51 | > 100 | 36.9 | > 100 | 79.3 | 33.1 | 87.2 | 
4 | CC(=O)O[C@H]1CC[C@H]2[C@@H]3CCc4cc(O)c(I)cc4[C@H]3CC[C@]12C | 29.7 | 80.9 | 30.7 | 26.9 | 43.2 | 20 µM | 41.9 | 17.2 | 29.1 | 32.3 | 31.7 | 33.6 | 24.4 |  | 12
5 | CC(=O)O[C@H]1C(=O)[C@@]2(C)C(C(OC(=O)c3ccccc3)[C@]3(O)CC(OC(=O)C(O)C(NC(=O)c4ccccc4)c4ccc(F)cc4)C(C)=C1C3(C)C)[C@]1(OC(C)=O)CO[C@@H]1C[C@@H]2O (some centres undefined) | > 10 |  |  | > 10 | > 4.04 | > 10 µM | 2.09 | > 3.32 | > 10 | > 10 | > 10 | > 10 | > 10 |  | 
6 | Cc1ccc(SCC(OCn2cnc3c(N)ncnc32)[C@H](C)F)cc1 (some centres undefined) | > 100 | > 100 | > 100 | > 100 | > 100 | > 100 µM | > 100 | > 100 | > 100 | > 100 | > 100 | > 100 | > 100 |  | 
7 | Cc1ccc2c(c1)C(=O)/C(=C1/CCc3ccc(C)cc31)C2 |  | > 100 | > 100 | > 100 | > 100 |  | > 100 | > 100 | > 100 | > 100 | > 100 | > 100 | > 100 | > 100 | 
8 | C=C(Cl)C(C)(Cl)CCC(Cl)C(C)(C)Cl (centres undefined) | > 100 | > 100 | > 100 | > 100 | > 100 | > 100 µM | 48.7 | > 100 | > 100 | > 100 |  | > 100 |  | > 100 | 
9 | CC(=O)OCc1nc(C#N)c(N)o1 | > 100 | > 100 | > 100 | > 100 |  | > 100 µM | > 100 | > 100 | > 100 | > 100 |  | > 100 | > 100 | > 100 | 
10 | O=C(Sc1c(-c2ccccc2)c(=O)n(-c2ccccc2)c(=S)n1-c1ccccc1)c1ccc(Cl)cc1 | > 100 | > 100 | > 100 | > 100 | > 100 |  |  |  | > 100 | > 100 | > 100 | > 100 | > 100 | > 100 | 
11 | COc1ccc(C)c2c1N[C@](C)([C@]1(C)Nc3c(OC)ccc(C)c3C1=O)C2=O | > 100 |  | > 100 | > 100 | > 100 | > 100 µM | > 100 | > 100 | > 100 | > 100 | > 100 |  | > 100 | > 100 | 
12 | CC(C)(C)CN1[C@@H]2CCCC[C@H]2N(CC(C)(C)C)P1(=O)Cc1ccccc1 | 27.3 | 26.4 | 29.7 | 28.1 | 27.1 | 19.4 µM |  | 24.8 | 29.2 | 28.6 | 26.6 | 25 | 22.5 |  | 
13 | Cc1ccc(S(=O)(=O)Nn2c(-c3ccccc3)c(C#N)c(-c3ccc(Cl)cc3)c(C#N)c2=O)cc1 | > 100 | 31.7 |  | > 100 |  | 98 µM | 37.4 | 29.3 | > 100 | > 100 |  | > 100 | 33 | 51.1 | 
14 | CCSC(=Nc1ccccc1)SC | > 100 | > 100 | > 100 | > 100 |  |  | > 100 | > 100 | > 100 | > 100 |  | > 100 | > 100 |  | 
15 | CCCSc1cc(Cl)c(C)cc1S(=O)(=O)n1cc[nH]c1=O | > 100 |  | > 100 | > 100 | > 100 | > 100 µM |  | > 100 | > 100 | > 100 | > 100 | > 100 | > 100 | > 100 | 
16 | CN(CCc1ccc(Br)cc1)CCN1CCCCC1 | > 100 |  | > 100 | > 100 | > 100 | > 100 µM | > 100 | 28.2 | > 100 | > 100 | > 100 | > 100 |  | 63.2 | 
17 | COC(=O)CCc1ccc2c(c1)CCC2 | > 100 | > 100 | > 100 | > 100 | > 100 | > 100 µM | > 100 | > 100 | > 100 | > 100 | > 100 | > 100 | > 100 |  | 
18 | CCOC(=O)CSc1nc2ccccc2c(=O)n1N | > 100 |  | > 100 | > 100 | > 100 | > 100 µM | > 100 | > 100 |  | > 100 | > 100 | > 100 | > 100 | > 100 | 

Row | SMILES | TGI [1] [µM] | TGI [2] [µM] | TGI [3] [µM] | TGI [4] [µM] | TGI [5] [µM] | TGI [6] | TGI [7] [µM] | TGI [8] [µM] | TGI [9] [µM] | TGI [10] [µM] | TGI [11] [µM] | TGI [12] [µM] | TGI [13] [µM] | TGI [14] [µM] | GI50 [13] [µM]
19 | CC1CCCOc2ccc(cc2)C=Nc2ccc(cc2)CCc2ccc(cc2)N=Cc2ccc(cc2)OCCC1 (centres undefined) | > 100 |  | > 100 | > 100 | > 100 | > 100 µM | > 100 | > 100 |  | > 100 |  | > 100 | > 100 | > 100 | 
20 | CCCCCCNC(=O)c1cc(NCc2cc(OC)ccc2OC)ccc1O | 98 | 46 | 64.9 | 84.4 | 48.1 | 45.7 µM | 35.6 | 28.4 | 36.9 | > 100 | 46.1 | > 100 | 33 |  | 
21 | O=C(O)C(Cc1ccc(O)cn1)NC(=O)C(F)(F)F (centres undefined) | > 100 | > 100 | > 100 | > 100 | > 100 | > 100 µM | > 100 | > 100 |  | > 100 |  | > 100 |  | > 100 | 
22 | O=C(O)C(Cc1cccs1)NC(=O)C(F)(F)F (centres undefined) | > 100 | > 100 | > 100 | > 100 | > 100 |  | > 100 | > 100 | > 100 | > 100 |  |  | > 100 | > 100 | 
23 | CS(=O)(=O)c1nc(N)nc2nc[nH]c12 | > 100 | > 100 | > 100 | > 100 |  |  | > 100 | > 100 | > 100 | > 100 |  | > 100 | > 100 | > 100 | 
24 | CC(N)Cc1cccc(C(F)(F)F)c1 (centres undefined) | > 100 | > 100 | > 100 | > 100 |  |  | > 100 | > 100 | > 100 | > 100 |  | > 100 | > 100 | > 100 | 
25 | O=[N+]([O-])C(/C(Cl)=C(/Cl)N1CCCCC1)=C1\NCCO1 | > 100 |  | > 100 | > 100 | > 100 | > 100 µM | > 100 |  | > 100 | > 100 | > 100 |  | > 100 | > 100 | 
26 | O=C1CN(c2cccc(C(F)(F)F)c2)C(=O)CN1NCNN1CC(=O)N(c2cccc(C(F)(F)F)c2)CC1=O |  | > 100 |  | > 100 | > 100 | > 100 µM | > 100 | > 100 | > 100 | > 100 | > 100 | > 100 |  |  | 
27 | COC(=O)c1cc(C)ccc1/C=C1\Cc2cc(C)c(C)cc2C1=O | > 100 | > 100 | > 100 | > 100 |  | > 100 µM | > 100 | > 100 |  | > 100 | > 100 | > 100 | > 100 | > 100 | 
28 | COC(=O)c1cc(NC2OCC(OC(C)=O)C(OC(C)=O)C2OC(C)=O)nc(SC)c1C(=O)OC (centres undefined) | > 100 | > 100 |  | > 100 | > 100 | > 100 µM | > 100 | > 100 |  | > 100 | > 100 | > 100 | > 100 |  | 
29 | CCC1(O)CC(OC2CC(N(C)C)C(OC3CC(O)C(OC4OC(C)C(=O)C=C4N)C(C)O3)C(C)O2)c2c(O)c3c(c(O)c2C1C(=O)OC)C(=O)c1cccc(O)c1C3=O (centres undefined) |  | 0.108 | 0.0806 | 0.0151 |  | 0.294 µM and 0.0742 µM | 0.0858 | 0.0659 |  | 0.976 |  | 0.0778 | 0.0375 | 0.0129 | 
30 | COC(=O)[C@H](CCSC)NC(=O)c1ccc(CNC(=O)/C=C/c2cccc(Oc3ccccc3)c2)cc1 | > 80.3 |  | > 62.9 | > 100 | > 100 | > 100 µM | > 100 | 34.5 | > 100 | > 100 | 27 | > 87 | 38.2 | 48.3 | 
31 | COc1cc(-c2c[nH]c3ccccc23)nc(-c2c[nH]c3ccccc23)n1 | 20.7 | 12.9 |  | 12.8 | 59.6 | 9.06 µM | 10.6 | 17.9 | 22.8 | 21 | 23.9 | 20.6 | 18.6 | 6.58 | 
32 | CC1=CC(C)C(C)N(CCNC(=O)Nc2ccccc2)c2ccccc21 (centres undefined) | 49.6 |  | 72.9 | 74.4 | 67.9 | 69.2 µM | 51.8 | 27.8 | 65.1 | 85.2 | 61.2 | 78.2 | 49.4 | 66 | 
33 | CC(=O)c1ccc(-c2oc(-c3ccccc3)cc2-c2ccc3c(c2)OCO3)s1 | 5.07 | 2.36 | > 100 | > 100 | > 100 |  | > 100 | > 100 | > 100 |  | > 100 | > 100 | > 100 | > 100 | 
34 | COc1ccc(C2Oc3c(cccc3OC)C=C2[N+](=O)[O-])cc1OC (centres undefined) | 38.3 | > 100 | 78.2 | > 100 | 53.4 | 26.5 µM | > 100 | 16.1 | 17.9 | > 100 | > 100 | 81.8 | 17.9 |  | 
35 | C[C@]12CCC3c4ccc(OC(=O)c5ccccc5)cc4CC[C@H]3C1CC[C@@H]2OC(=O)C12OC1CCC2=O (some centres undefined) |  | 4.56 | 34.5 | 8.3 |  |  | 14.8 | 9.49 | 33.4 | 37 |  | 33.9 | 38.4 | 14.2 | 
